{
  "source": "BindingDB's records for PubMed 38748608",
  "about": "(University of Florida)",
  "molecular_target": "Neuronal acetylcholine receptor alpha9/alpha10 (Homo sapiens)",
  "assay": "Partial agonist activity at human alpha9alpha10 nAChR expressed as xenopus laevis oocytes assessed as increase in receptor desensitization measured after 120 secs by two-electrode voltage-clamp electrophysiology method",
  "data": [
    {"compound": "CC[N+]1(C)CCN(c2ccc(NC(C)=O)cc2)CC1", "values": [
      {"measurement": "EC50", "result": 640, "unit": "nM"}
    ]}
  ]
}
